In patent US10392422B2, “Macrocyclic broad spectrum antibiotics” (priority 2014, dated 2019):
In brackets after ≈: the same amount, converted by molar mass. Like-named read-outs stand apart in the source and are kept apart here.

What was measured:
Test in all cases: MIC, broth micro-dilution technique (CLSI)
[1] = test system: Escherichia coli MC4100 harboring the IMP4213; type: cell-based; conditions: for MIC: Escherichia coli, 22 h
In short: (§1)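 CLSI broth microdilution in cation-adjusted Mueller Hinton broth with 0.002% v/v Tween-80. Compounds were serially 2-fold diluted over 10 concentrations from 64 μg/ml, or from 4 μg/mL in a modified protocol; inoculum at final OD600 0.0005, incubated 35° C for 22 hours.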

[2] = test system: Methicillin Resistant Staphylococcus aureus strain USA 300 (NRS384); type: cell-based; conditions: for MIC: Staphylococcus aureus, 22 h, read-out: MIC (μg/mL) S. aureus
In short: as §1

MRSA COL (NRS100) = type: cell-based, Staphylococcus aureus; conditions: for MIC: Staphylococcus aureus, 22 h, read-out: MIC (μg/mL) (COL)
In short: as §1

[3] = read-out: MIC (μg/mL) E. coli, Table 1 protocol: serial 2-fold dilutions starting from 64 μg/ml, 35° C., 22 hours
[4] = Table 1 protocol: serial 2-fold dilutions starting from 64 μg/ml, 35° C., 22 hours
[5] = read-out: MIC (μg/mL) E. coli, Table 2 modified protocol: serial 2-fold dilutions starting from 4 μg/mL, 35° C., 22 hours
[6] = Table 2 modified protocol: serial 2-fold dilutions starting from 4 μg/mL, 35° C., 22 hours

| SMILES | MIC [1, 3] | MIC [2] | MIC (MRSA COL (NRS100)) | MIC [1, 5] | further results |
| --- | --- | --- | --- | --- | --- |
| C[C@@H]1NC(=O)[C@@H](N(C)C(=O)[C@H](CCCCN)NC(=O)c2ccc(-c3ccc(Cl)cc3)cc2)c2ccc(OCCN)c(c2)-c2cc(ccc2O)C[C@@H](C(=O)O)NC1=O [Compound 312] | 3 µg/mL (≈ 3.75 µM) | 24 µg/mL (≈ 30 µM) | 3 µg/mL (≈ 3.75 µM) |  |  |
| C[C@H](NC(=O)[C@@H]1Cc2ccc(O)c(c2)-c2cc(ccc2OCCN)[C@H](N(C)C(=O)[C@H](CCCCN)NC(=O)c2ccc(-c3ccc(Cl)cc3)cc2)C(=O)N[C@@H](C)C(=O)N1)B1O[C@@H]2C[C@@H]3C[C@@H](C3(C)C)[C@]2(C)O1 [Compound 313] | 1 µg/mL (≈ 0.996 µM) | 2 µg/mL (≈ 1.99 µM) | 0.38 µg/mL (≈ 0.378 µM) |  |  |
| CCCCCCCCCCCCCC(=O)NC(CCCCN)C(=O)N(C)C1C(=O)NC(C)C(=O)NC(C(=O)NC(C)B2OC3CC4CC(C4(C)C)C3(C)O2)Cc2ccc(OCCN)c(c2)-c2cc1ccc2OCCN (stereo not drawn) [Compound 314] |  |  |  |  | MIC (μg/mL) E. coli [1, 4]: 0.094 µg/mL (≈ 0.0901 µM); MIC (μg/mL) S. aureus [2, 4]: 0.063 µg/mL (≈ 0.0604 µM); MIC (μg/mL) (COL) (MRSA COL (NRS100); [4]): 0.012 µg/mL (≈ 0.0115 µM) |
| CCCCCCCCCCCCCC(=O)N(C)[C@@H]1C(=O)N[C@@H](C)C(=O)N[C@H](C(=O)N[C@@H](C)B2O[C@@H]3C[C@@H]4C[C@@H](C4(C)C)[C@]3(C)O2)Cc2ccc(OCCN)c(c2)-c2cc1ccc2OCCN [Compound 315] | 1 µg/mL (≈ 1.09 µM) | 1 µg/mL (≈ 1.09 µM) | 0.5 µg/mL (≈ 0.546 µM) |  |  |
| CCCCc1ccc(-c2ccc(C(=O)N[C@@H](CCCCN)C(=O)N(C)[C@@H]3C(=O)N[C@@H](C)C(=O)N[C@H](C(=O)N[C@@H](C)B4O[C@@H]5C[C@@H]6C[C@@H](C6(C)C)[C@]5(C)O4)Cc4ccc(OCCN)c(c4)-c4cc3ccc4OCCN)cc2)cc1 [Compound 316] | 0.094 µg/mL (≈ 0.0879 µM) | 0.13 µg/mL (≈ 0.122 µM) | 0.031 µg/mL (≈ 0.029 µM) |  |  |
| CCCCc1ccc(-c2ccc(C(=O)N[C@@H](CN)C(=O)N(C)[C@@H]3C(=O)N[C@@H](C)C(=O)N[C@H](C(=O)N[C@@H](C)B4O[C@@H]5C[C@@H]6C[C@@H](C6(C)C)[C@]5(C)O4)Cc4ccc(OCCN)c(c4)-c4cc3ccc4OCCN)cc2)cc1 [Compound 317] | 0.13 µg/mL (≈ 0.127 µM) | 0.13 µg/mL (≈ 0.127 µM) | 0.063 µg/mL (≈ 0.0613 µM) |  |  |
| CCCCCCCCc1ccc(C(=O)N[C@@H](CCCN)C(=O)N(C)[C@@H]2C(=O)N[C@@H](C)C(=O)N[C@H](C(=O)N[C@@H](C)B3O[C@@H]4C[C@@H]5C[C@@H](C5(C)C)[C@]4(C)O3)Cc3ccc(OC)c(c3)-c3cc2ccc3OC)cc1 [Compound 319] | 0.75 µg/mL (≈ 0.768 µM) | 2 µg/mL (≈ 2.05 µM) | 1 µg/mL (≈ 1.02 µM) |  |  |
| CCCCCCCCc1ccc(C(=O)N(C)[C@@H]2C(=O)N[C@@H](C)C(=O)N[C@H](C(=O)NCB3O[C@@H]4C[C@@H]5C[C@@H](C5(C)C)[C@]4(C)O3)Cc3ccc(OCCN)c(c3)-c3cc2ccc3OCCN)cc1 [Compound 320] | 4 µg/mL (≈ 4.41 µM) | 6 µg/mL (≈ 6.62 µM) | 2 µg/mL (≈ 2.21 µM) |  |  |
| CCCCCCCCc1ccc(C(=O)N[C@@H](CCCN)C(=O)N(C)[C@@H]2C(=O)N[C@@H](C)C(=O)N[C@H](C(=O)N[C@@H](C)B3O[C@@H]4C[C@@H]5C[C@@H](C5(C)C)[C@]4(C)O3)Cc3ccc(OCCN)c(c3)-c3cc2ccc3OCCN)c(C)c1 [Compound 321] | 0.063 µg/mL (≈ 0.06 µM) | 0.094 µg/mL (≈ 0.0896 µM) | 0.063 µg/mL (≈ 0.06 µM) |  |  |
| CCCCCCCCc1ccc(C(=O)N[C@@H](CCCN)C(=O)N(C)[C@@H]2C(=O)N[C@@H](C)C(=O)N[C@H](C(=O)N[C@@H](C)B(O)O)Cc3ccc(OCCN)c(c3)-c3cc2ccc3OCCN)c(F)c1 [Compound 322] | 0.13 µg/mL (≈ 0.141 µM) |  |  |  | MIC [2, 4]: 0.13 µg/mL (≈ 0.141 µM); MIC (MRSA COL (NRS100); [4]): 0.063 µg/mL (≈ 0.0686 µM) |
| CCCCCCCCc1ccc(C(=O)N[C@@H](CCCN)C(=O)N(C)[C@@H]2C(=O)N[C@@H](C)C(=O)N[C@H](C(=O)N[C@@H](C)B3O[C@@H]4C[C@@H]5C[C@@H](C5(C)C)[C@]4(C)O3)Cc3ccc(OCCCN)c(c3)-c3cc2ccc3OCCCN)cc1 [Compound 323] |  | 0.13 µg/mL (≈ 0.122 µM) | 0.031 µg/mL (≈ 0.0292 µM) | 0.063 µg/mL (≈ 0.0593 µM) |  |
| CCCCCCCCc1ccc(C(=O)N[C@@H](CCCN)C(=O)N(C)[C@@H]2C(=O)N[C@@H](C)C(=O)N[C@H](C(=O)NCB3O[C@@H]4C[C@@H]5C[C@@H](C5(C)C)[C@]4(C)O3)Cc3ccc(OCCN)c(c3)-c3cc2ccc3OCCN)cc1 [Compound 324] |  | 0.25 µg/mL (≈ 0.245 µM) | 0.13 µg/mL (≈ 0.127 µM) | 0.13 µg/mL (≈ 0.127 µM) |  |
| CCCCCCCCCCCCCC(=O)N[C@@H](CCN)C(=O)N(C)[C@@H]1C(=O)N[C@@H](C)C(=O)N[C@H](C(=O)N[C@@H](C)B2O[C@@H]3C[C@@H]4C[C@@H](C4(C)C)[C@]3(C)O2)Cc2ccc(OCCN)c(c2)-c2cc1ccc2OCCN [Compound 325] |  | 0.13 µg/mL (≈ 0.128 µM) | 0.023 µg/mL (≈ 0.0227 µM) | 0.13 µg/mL (≈ 0.128 µM) |  |
| CCCCCCCCc1ccc(C(=O)N[C@@H](CCCN)C(=O)N(C)[C@@H]2C(=O)N[C@@H](C)C(=O)N[C@H](C(=O)NCB(O)O)Cc3ccc(OCCN)c(c3)-c3cc2ccc3OCCN)cc1 [Compound 326] |  |  |  | 0.19 µg/mL (≈ 0.214 µM) | MIC [2, 6]: 0.25 µg/mL (≈ 0.282 µM); MIC (MRSA COL (NRS100); [6]): 0.13 µg/mL (≈ 0.147 µM) |
| CCCCc1ccc(-c2ccc(C(=O)N[C@@H](CCCN)C(=O)N(C)[C@@H]3C(=O)N[C@@H](C)C(=O)N[C@H](C(=O)NC/C=C/S(C)(=O)=O)Cc4ccc(OCCN)c(c4)-c4cc3ccc4OCCN)cc2)cc1 [Compound 327] |  |  |  | 0.5 µg/mL (≈ 0.517 µM) | MIC [2, 6]: 0.5 µg/mL (≈ 0.517 µM); MIC (MRSA COL (NRS100); [6]): 0.13 µg/mL (≈ 0.134 µM) |
| CCCCc1ccc(-c2ccc(C(=O)N[C@@H](CCCCN)C(=O)N(C)[C@@H]3C(=O)N[C@@H](C)C(=O)N[C@H](C(=O)NCc4nnn[nH]4)Cc4ccc(OCCN)c(c4)-c4cc3ccc4OCCN)cc2)cc1 [Compound 328] |  | 2 µg/mL (≈ 2.12 µM) | 0.5 µg/mL (≈ 0.529 µM) |  | MIC ([1]; read-out: MIC (μg/mL) E. coli): 0.25 µg/mL (≈ 0.265 µM) |
| CCCCc1ccc(-c2ccc(C(=O)N[C@@H](CCCCN)C(=O)N(C)[C@@H]3C(=O)N[C@@H](C)C(=O)N[C@H](C(=O)NCc4nnn[nH]4)Cc4ccc(O)c(c4)-c4cc3ccc4OCCN)cc2)cc1 [Compound 329] |  | > 4 µg/mL | 2 µg/mL (≈ 2.22 µM) |  | MIC ([1]; read-out: MIC (μg/mL) E. coli): 0.38 µg/mL (≈ 0.421 µM) |
| CC(=O)[C@H](C)NC(=O)[C@@H]1Cc2ccc(OCCO)c(c2)-c2cc(ccc2OCCN)[C@H](N(C)C(=O)[C@H](CCCCN)NC(=O)c2ccc(-c3ccc(Cl)cc3)cc2)C(=O)N[C@@H](C)C(=O)N1 [Compound 330] |  | 3 µg/mL (≈ 3.29 µM) | 1 µg/mL (≈ 1.1 µM) | > 4 µg/mL |  |
| CC(=O)[C@H](C)NC(=O)[C@@H]1Cc2ccc(O)c(c2)-c2cc(ccc2OCCn2ccnc2)[C@H](N(C)C(=O)[C@H](CCCCN)NC(=O)c2ccc(-c3ccc(Cl)cc3)cc2)C(=O)N[C@@H](C)C(=O)N1 [Compound 331] | 8 µg/mL (≈ 8.7 µM) |  |  |  | MIC [2, 4]: 16 µg/mL (≈ 17.4 µM); MIC (MRSA COL (NRS100); [4]): 2 µg/mL (≈ 2.18 µM) |
| CC(=O)[C@H](C)NC(=O)[C@@H]1Cc2ccc(O)c(c2)-c2cc(ccc2OCCN2CCN(C)CC2)[C@H](N(C)C(=O)[C@H](CCCCN)NC(=O)c2ccc(-c3ccc(Cl)cc3)cc2)C(=O)N[C@@H](C)C(=O)N1 [Compound 332] | 64 µg/mL (≈ 67.3 µM) |  |  |  | MIC [2, 4]: 64 µg/mL (≈ 67.3 µM); MIC (MRSA COL (NRS100); [4]): 8 µg/mL (≈ 8.41 µM) |
| C[C@@H]1NC(=O)[C@@H](N(C)C(=O)[C@H](CCCCN)NC(=O)c2ccc(-c3ccc(Cl)cc3)cc2)c2ccc(O)c(c2)-c2cc(ccc2O)C[C@@H](C(=O)N[C@@H](C)C(=O)N(C)c2cc[nH]n2)NC1=O [Compound 333] | 32 µg/mL (≈ 35.3 µM) |  |  |  | MIC [2, 4]: 64 µg/mL (≈ 70.6 µM); MIC (MRSA COL (NRS100); [4]): 16 µg/mL (≈ 17.7 µM) |
| CCCCc1ccc(-c2ccc(C(=O)N[C@@H](CCCN)C(=O)N(C)[C@@H]3C(=O)N[C@@H](C)C(=O)N[C@H](C(=O)NCC(=O)O)Cc4ccc(OCCN)c(c4)-c4cc3ccc4OCCN)cc2)cc1 [Compound 334] |  |  |  | 0.13 µg/mL (≈ 0.143 µM) | MIC [2, 6]: 1 µg/mL (≈ 1.1 µM); MIC (MRSA COL (NRS100); [6]): 0.38 µg/mL (≈ 0.419 µM) |
| CCCCc1ccc(-c2ccc(C(=O)N[C@@H](CCCN)C(=O)N(C)[C@@H]3C(=O)N[C@@H](C)C(=O)N[C@H](C(N)=O)Cc4ccc(OCCN)c(c4)-c4cc3ccc4OCCN)cc2)cc1 [Compound 335] |  | 0.19 µg/mL (≈ 0.224 µM) | 0.063 µg/mL (≈ 0.0742 µM) | 0.13 µg/mL (≈ 0.153 µM) |  |
